Data from publication PMC11312998, “Molecular Pro-Apoptotic Activities of Flavanone Derivatives in Cyclodextrin Complexes: New Implications for Anticancer Therapy” (International Journal of Molecular Sciences, 2024).

Test system: HCC38
Assay: Mitochondrial potential (ΔΨm), JC-1 method
Format: cell-based, human
Details: IC50 concentration, 24 h
From the text: 5,5,6,6-Tetrachloro-1,1,3,3-tetraethylbenzimidazolylcarbocyanine iodide (JC-1) is a cationic carbocyanine dye commonly used as a fluorescent probe to detect mitochondrial membrane depolarization. In living cells with an intact mitochondrial membrane, the lipophilic JC-1 penetrates the negatively charged mitochondrial matrix as a monomer. It then forms fluorescent aggregates with red-orange fluorescence (λex = 514 nm, λem = 590 nm). During depolarization of the mitochondrial membrane or in apoptotic cells, the concentration of JC-1 decreases, and the aggregates disintegrate into monomers emitting green fluorescence (λex = 514 nm, λem = 529 nm). The fluorescence ratio of aggregates (λem = 590 nm) and monomers (λem = 529 nm)—590 nm/529 nm—reflects the level of damage to the mitochondrial membrane.
The cells were seeded in black 96-well fluorometric microplates at a density of 10 × 10^3 cells per well. […] After incubation with the compounds, the medium was removed, the cell monolayer in the wells was washed twice with HBSS (140 mM NaCl, 5 mM KCl, 0.8 mM MgCl2, 1.8 mM CaCl2, 1 mM Na2HPO4, 10 mM HEPES and 1% glucose) and 50 μL of JC-1 solution in HBSS was added to each well (final probe concentration 5 μmol/L). Cells were incubated with the probe for 30 min in the dark in an incubator (37 °C). After incubation, the probe was removed and replaced with fresh HBSS buffer. Fluorescence measurements (Perkin-Elmer LS-5B spectrofluorometer, MA, USA) of JC-1 monomers and aggregates were made at the following excitation and emission wavelengths: λex = 514 nm, λem = 529 nm (monomers), λex = 514 nm, λem = 590 nm (aggregates). The results of the tested samples are presented as the percentage fluorescence ratio of JC-1 aggregates and JC-1 monomers relative to the fluorescence ratio of JC-1 aggregates and JC-1 monomers of the control, which was assumed to be 100%.
A positive control was formed of cells pre-incubated with 5 µmol/L carbonyl cyanide m-chlorophenylhydrazone (CCCP), a chemical inhibitor of oxidative phosphorylation that acts by uncoupling the protons flowing along the electrochemical gradient from phosphorylation.

For `O=C1/C(=C/c2ccccc2)C(c2ccccc2)Oc2ccccc21` (stereo not shown) [Compound 5], the “change in mitochondrial potential (in words)” value was “strong hyperpolarization”.
